{
  "source": "patent US20070036843A1",
  "about": "“Non-ionic non-aqueous vehicles for topical and oral administration of carrier-complexed active agents” (Collegium Pharmaceutical, Inc., priority 2005, published 2007)",
  "assay": "Release of albuterol from resinate in various vehicles (membrane-bottomed insert over wells of aqueous solution, simulating topical application to skin)",
  "type": "physicochemical",
  "conditions": "room temperature, sampled 0.5, 1, 2 and 4 hours",
  "method": "Albuterol was detected by HPLC on a Waters “Resolve” 5 micron spherical C18 resin column, with a mobile phase of 70% buffer and 30% methanol. Buffer was 4.4 g 1-heptane sulfonic acid in 100 g DI water, adjusted to pH 3.2±0.1 with glacial acetic acid. Albuterol extraction solvent was 10% v/v 0.5 M Na Acetate in ethanol. A stock solution of 0.5 mg albuterol/ml extraction buffer was diluted with 25 volumes of “diluent” (30:70 methanol:DI water, v:v) at the time of use. Samples were extracted to determine albuterol content by transferring 200 mg albuterol resin to a 250 ml flask, using extraction solvent; bringing the volume to about 220 ml of extraction solvent; shaking overnight at room temperature; adding extraction solvent to 250 ml; filtering an aliquot; and diluting filtered solution with 24 volumes of diluent. This solution was analyzed by HPLC, and the amount was determined by comparison with a chromatogram of the standard.\nA system was developed to simulate the effects of topical application of a resin-bound drug in a vehicle to skin. […]\nThe experimental design allowed the pores of the membrane to fill with the aqueous solution. […] Wells were sampled at various times and the fluid was analyzed for albuterol. […]\n7.5 g phosphate buffer (pH 6.8; 0.05 M) was added to each well. […] The inserts were removed, and the fluid in the wells (12 in all) was analyzed for albuterol by HPLC. […]",
  "data": [
    {"smiles": "CC(C)(C)NCC(O)c1ccc(O)c(CO)c1", "note": "(centres unmarked) [albuterol, Albuterol]", "values": [
      {"measurement": "Release of albuterol", "setting": "albuterol resinate directly in ionic aqueous solution (phosphate buffer pH 6.8, 0.05 M), no vehicle, compared with NINA vehicles", "result": "fastest"},
      {"measurement": "Release of albuterol", "setting": "albuterol resinate in hydrophobic castor oil/colloidal silica (2.5%) vehicle without surfactant, phosphate buffer pH 6.8 in well", "result": "not detectable"}
    ]}
  ]
}
